# Experimental data as given in article PMC12797170, “Potent Competitive Inhibitors of Ecto-5′-nucleotidase (CD73) based on 6‑(Het)aryl-7-deazapurine Ribonucleoside 5′‑O‑Bisphosphonates” (ACS Pharmacology & Translational Science, 2025).
# Where two headings read alike, the source gives them in different places.
# Key:
# [1] = target: T1, recombinant human CD73 (hCD73) (Homo sapiens, UniProt P21589); test: CD73 activity assay on recombinant human CD73; assay type: biochemical; conditions: ΔGexp = RT ln Ki
# T1 sequence (P21589 27-574): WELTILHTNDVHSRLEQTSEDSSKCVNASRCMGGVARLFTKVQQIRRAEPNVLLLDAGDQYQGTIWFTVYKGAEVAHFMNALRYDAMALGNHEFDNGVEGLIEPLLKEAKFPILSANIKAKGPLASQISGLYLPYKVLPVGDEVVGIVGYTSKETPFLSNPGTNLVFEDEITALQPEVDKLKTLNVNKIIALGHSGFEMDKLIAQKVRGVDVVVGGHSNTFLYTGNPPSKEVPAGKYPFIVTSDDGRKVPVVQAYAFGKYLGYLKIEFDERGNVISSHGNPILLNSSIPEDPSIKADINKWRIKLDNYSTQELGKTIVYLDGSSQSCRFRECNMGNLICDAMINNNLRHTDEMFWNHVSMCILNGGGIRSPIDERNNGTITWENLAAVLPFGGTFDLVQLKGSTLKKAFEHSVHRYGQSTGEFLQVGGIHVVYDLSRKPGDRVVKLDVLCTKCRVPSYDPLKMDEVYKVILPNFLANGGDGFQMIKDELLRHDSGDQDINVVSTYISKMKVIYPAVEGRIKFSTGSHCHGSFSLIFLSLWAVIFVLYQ
# [2] = In vivo pharmacokinetic study, intravenous; design: species or system male CD-1 mice; conditions: for half-life / clearance: plasma, 1 mg/kg; for half-life: footnote: t1/2 stability in plasma, text: half-life in mouse PK; for unbound plasma exposure relative to mouse CD73 Ki: mouse PK, unbound via mouse PPB, all time points
# Summary of the method: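 Single intravenous dose in male CD-1 mice (n=3, 9 weeks, 29.2–33.7 g). Plasma levels measured by LC-MS/MS at 5, 15, 30, 60, 120, 240 and 480 min.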
# [3] = Plasma protein binding, equilibrium dialysis, human plasma; assay type: in vitro ADME; conditions: undiluted plasma
# [4] = target: hERG potassium channel (Homo sapiens, UniProt Q12809); test: hERG inhibition assay (thallium flux, HEK293-hERG cells); assay type: cell-based; conditions: for inhibition of hERG: at 100 μM
# Procedure: The study was performed by Bienta (Enamine Biology Services). HEK293-hERG cells (stably expressing human potassium channel hERG – human Ether-a-go-go Related Gene) were cultured in DMEM/F-12 medium supplemented with 10% FBS, 100 U/mL penicillin, 100 μg/mL streptomycin, and 500 μg/mL G418. The assay was performed according to the manufacturer’s instructions. Cells were seeded into a 384-well poly-D-lysine, clear-bottom microtiter plate (8000 cells/well) in DMEM/F-12 medium supplemented with 5% FBS, 100 U/mL penicillin, 100 μg/mL streptomycin 24 h prior to assay. After 24 h of cell growth, the conditioned medium was substituted with the Dye Loading Solution comprising thallium-sensitive dye, followed by incubation for 1 h in a CO2 incubator. After the incubation, the Dye Loading Solution was substituted with a 15 μL/well mixture of the Assay Buffer and the TRS. Then, 5 μL of the test compound diluted in the assay buffer (0.5% DMSO final concentration) was added to each well of the plate and incubated at room temperature for 30 min hERG inhibition by test compounds was assessed at 3 concentrations of 10–50–100 μM. All test points were performed in quadruplicates. […] DMSO was used as a negative control, and Haloperidol was used as a reference compound to verify the assay validity. Haloperidol was dissolved in 100% DMSO at a concentration of 20 mM and stored at – 20 °C (for no more than a month). Haloperidol was assessed at the final concentrations ranging from 0.023 μM to 50.0 μM (8 points, 3-fold serial dilutions). The test compounds were dissolved in 100% DMSO at a concentration of 20 mM.
# [5] = test system: MDA-MB-231 breast cancer cell line; test: CellTox Green cytotoxicity assay; assay type: cell-based, human; conditions: 24 h
# Procedure: MDA-MB-231 cells were harvested and counted using an automated cell counter. A total of 2,500 cells per well were seeded in 20 μL of phenol red-free complete RPMI medium into black 384-well plates. Five μL of CD73 inhibitors (final concentration: […]) or 5 μL PBS (negative control) were added to each well, except for wells designed as maximal signal (dead cell) controls. Plates were incubated for 24 h at 37 °C in a humidified CO2 incubator. To generate the maximum signal control, 5 μL of lysis buffer (CellTox Green Cytotoxicity Assay, Promega) was added to the dead cell controls, followed by a 30 min incubation at room temperature. Subsequently, 25 μL/well of CellTox Green Dye (diluted 1:500 in the assay buffer; Promega) was added. Plates were incubated in the dark on an orbital shaker at 500–700 rpm for 15 min. Fluorescence was measured using an Infinite M1000 plate reader (Tecan) with excitation at 485–500 nm and emission at 520–530 nm. Data were analyzed in GraphPad Prism 10.
# Figure S2: Effect of CD73 inhibition on the viability of CD73-expressing breast cancer cell line. MDA-MB-231 cells were incubated with 10 µM CD73 inhibitors for 24 hours. Viability was assessed using the CellTox™ Green Cytotoxicity Assay.
# ± s.d. of technical triplicates (s.d., standard deviation).
# (1 picture or pasted object on this page, not shown here)
# [6] = Microsomal stability assay, human liver microsomes; assay type: in vitro ADME; conditions: for Mics (hu) comp remaining 60 min: 10 μM; for microsomal CLint at 10 µM: pooled liver microsomes, pH 7.4, read-out: Mics (hu) CLint
# [7] = Microsomal stability assay, mouse liver microsomes; assay type: in vitro ADME; conditions: for microsomal CLint at 10 µM: pooled liver microsomes, pH 7.4, read-out: Mics (m) CLint; for Mics (m) comp remaining 60 min: 10 μM
# [8] = male, CD-1, mouse, iv, intravenous
# [9] = Tables 1 and 3, human plasma as printed in footnote, read-out: fup, fraction unbound in human plasma
# [10] = human plasma protein binding, read-out: PPB (hu) (converted)
# [11] = mouse, male CD-1 mice, intravenous, single dose, read-out: Cl (obs), observed clearance
# [12] = male, CD-1, mouse, intravenous, in vivo PK in mice, unit inferred, read-out: clearance
# Chain of hERG potassium channel (Q12809 whole entry): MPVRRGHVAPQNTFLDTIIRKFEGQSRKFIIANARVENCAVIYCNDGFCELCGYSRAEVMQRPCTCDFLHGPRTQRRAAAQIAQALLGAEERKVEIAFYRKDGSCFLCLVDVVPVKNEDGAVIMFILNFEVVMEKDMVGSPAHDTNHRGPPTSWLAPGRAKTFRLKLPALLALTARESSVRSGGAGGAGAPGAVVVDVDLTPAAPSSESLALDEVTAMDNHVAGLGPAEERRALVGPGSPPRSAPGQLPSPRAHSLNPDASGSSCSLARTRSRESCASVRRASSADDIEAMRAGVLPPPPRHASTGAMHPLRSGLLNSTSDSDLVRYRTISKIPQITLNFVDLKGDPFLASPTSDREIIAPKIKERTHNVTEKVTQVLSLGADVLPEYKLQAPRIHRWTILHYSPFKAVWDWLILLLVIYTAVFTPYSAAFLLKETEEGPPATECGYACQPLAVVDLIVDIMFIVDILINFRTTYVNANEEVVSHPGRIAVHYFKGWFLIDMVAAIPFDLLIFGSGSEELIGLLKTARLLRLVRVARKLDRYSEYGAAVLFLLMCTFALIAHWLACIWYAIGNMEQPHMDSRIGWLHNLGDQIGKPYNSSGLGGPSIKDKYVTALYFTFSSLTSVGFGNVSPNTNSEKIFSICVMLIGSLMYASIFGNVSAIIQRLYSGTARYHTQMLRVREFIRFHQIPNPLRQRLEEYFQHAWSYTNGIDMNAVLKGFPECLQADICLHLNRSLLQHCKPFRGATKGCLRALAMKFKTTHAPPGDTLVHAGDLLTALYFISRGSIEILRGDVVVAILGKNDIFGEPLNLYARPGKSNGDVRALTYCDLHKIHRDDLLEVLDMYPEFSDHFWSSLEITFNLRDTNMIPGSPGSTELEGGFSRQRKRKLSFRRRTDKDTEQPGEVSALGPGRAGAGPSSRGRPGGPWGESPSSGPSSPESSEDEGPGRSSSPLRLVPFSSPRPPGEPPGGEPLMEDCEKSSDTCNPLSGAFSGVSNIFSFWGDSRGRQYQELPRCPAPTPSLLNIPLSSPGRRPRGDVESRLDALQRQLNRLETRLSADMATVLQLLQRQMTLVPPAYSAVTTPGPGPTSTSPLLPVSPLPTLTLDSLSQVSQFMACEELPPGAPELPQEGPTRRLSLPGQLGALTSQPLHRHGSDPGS
Structure (SMILES),"dG_exp, experimental binding free energy [1]","half-life [2, 8]","clearance ([2]; male, CD-1, mouse, iv, in vivo PK in mice, unit inferred, read-out: clearance)","fraction unbound at 4 h, 100 µM [3, 9]","fraction unbound at 4 h, 100 µM [3, 10]",hERG % inhibition at 100 µM [4],inhibition of hERG [4],in vitro cytotoxicity against MDA-MB-231 [5],Mics (hu) comp remaining 60 min [6],microsomal CLint at 10 µM [6],microsomal CLint at 10 µM [7],"clearance [2, 11]",Mics (m) comp remaining 60 min [7],unbound plasma exposure relative to mouse CD73 Ki [2],"clearance [2, 12]"
O=P(O)(O)CP(=O)(O)OC[C@H]1O[C@@H](n2ccc3c(-c4ccc5ccccc5c4)ncnc32)[C@H](O)[C@@H]1O [4A.7],–13.4 kcal/mol,4.2 h,4.1 mL/min/kg,0.31,0.011,1%,no inhibition,nontoxic,–,–,–,–,–,–,–
O=P(O)(O)CP(=O)(O)OC[C@H]1O[C@@H](n2ccc3c(-c4cccc5ccncc45)ncnc32)[C@H](O)[C@@H]1O [4A.18],–14.1 kcal/mol,–,–,–,0.195,6%,no inhibition,nontoxic,105%,< 1 µL/min/mg,< 1 µL/min/mg,–,–,–,–
O=P(O)(O)CP(=O)(O)OC[C@H]1O[C@@H](n2ccc3c(-c4cccc5c4CCCC5)nc(Cl)nc32)[C@H](O)[C@@H]1O [7B.12],–15.9 kcal/mol,2.33 h,–,–,0.005,3%,no inhibition,nontoxic,101%,< 1 µL/min/mg,< 1 µL/min/mg,0.88 mL/min/kg,117%,–,–
O=P(O)(O)CP(=O)(O)OC[C@H]1O[C@@H](n2ccc3c(-c4ccc5c(c4)CCCC5)nc(Cl)nc32)[C@H](O)[C@@H]1O [7B.23],–16.3 kcal/mol,2.23 h,–,–,≤ 0.01,5%,no inhibition,nontoxic,124%,< 1 µL/min/mg,< 1 µL/min/mg,3 mL/min/kg,123%,–,–
O=P(O)(O)CP(=O)(O)OC[C@H]1O[C@@H](n2ccc3c(-c4ccc(F)c5ccccc45)nc(Cl)nc32)[C@H](O)[C@@H]1O [7B.28],–16.6 kcal/mol,1.8 h,–,–,≤ 0.01,6%,no inhibition,nontoxic,95%,2 µL/min/mg,< 2 µL/min/mg,1.7 mL/min/kg,101%,well above,–
Cc1nc(-c2cccc3ccccc23)c2ccn([C@@H]3O[C@H](COP(=O)(O)CP(=O)(O)O)[C@@H](O)[C@H]3O)c2n1 [18E.6],–13.9 kcal/mol,5.27 h,–,–,0.045,2%,no inhibition,nontoxic,98%,1 µL/min/mg,1 µL/min/mg,0.32 mL/min/kg,95%,well above,0.32 mL/min/kg
Cc1nc(-c2ccc3ccccc3c2)c2ccn([C@@H]3O[C@H](COP(=O)(O)CP(=O)(O)O)[C@@H](O)[C@H]3O)c2n1 [18E.7],–14.6 kcal/mol,1.73 h,–,–,0.004,–,–,nontoxic,86%,5 µL/min/mg,1 µL/min/mg,4.6 mL/min/kg,97%,–,–
"O=P(O)(O)CP(=O)(O)OC[C@H]1O[C@@H](n2ccc3c(-c4ccc5c(c4)CCCC5)nc(I)nc32)[C@H](O)[C@@H]1O [27H.23, [(5-{[2-Iodo-4-(5,6,7,8-tetrahydronaphthalen-2-yl)-7H-pyrrolo[2,3-d]pyrimidin-7-yl]-β-D-ribofuranosyl}oxy)phosphonomethyl]phosphonic Acid]",–16.1 kcal/mol,3.08 h,–,0.036,≤ 0.01,7%,no inhibition,nontoxic,104%,< 1 µL/min/mg,2 µL/min/mg,3.1 mL/min/kg,–,–,3.1 mL/min/kg
